Experimental data: the NIST ThermoML archive (doi:10.1016/j.jct.2018.08.013)
“And” between values parts separate entries of the source, which are not always exact repeats. Equal entries are not always repeated.

Tests used:
[1] = specific heat capacity at constant pressure; xn = mol fraction of the nth substance listed; conditions: 100 kPa, Crystal of intercomponent compound 1, x2 = 0.501
[2] = xn = mol fraction of the nth substance listed; conditions: 298 K; 100 kPa; Crystal of intercomponent compound 1; X-ray diffraction; x2 = 0.501

[Se] [selenium] + [Ga]
[1]
Conditions | specific heat capacity
16.15 K, relaxation calorimetry | 11.99 J/K/kg
16.17 K, relaxation calorimetry | 12 J/K/kg
18.16 K, relaxation calorimetry | 16.65 J/K/kg and 16.64 J/K/kg
18.18 K, relaxation calorimetry | 16.69 J/K/kg
20.17 K, relaxation calorimetry | 21.87 J/K/kg
20.18 K, relaxation calorimetry | 21.87 J/K/kg
20.19 K, relaxation calorimetry | 21.91 J/K/kg
22.2 K, relaxation calorimetry | 27.43 J/K/kg and 27.5 J/K/kg
22.21 K, relaxation calorimetry | 27.42 J/K/kg
24.22 K, relaxation calorimetry | 33.32 J/K/kg and 33.29 J/K/kg
24.23 K, relaxation calorimetry | 33.28 J/K/kg
26.23 K, relaxation calorimetry | 39.37 J/K/kg and 39.38 J/K/kg
26.24 K, relaxation calorimetry | 39.4 J/K/kg
28.25 K, relaxation calorimetry | 45.37 J/K/kg and 45.38 J/K/kg and 45.39 J/K/kg
30.27 K, relaxation calorimetry | 51.28 J/K/kg and 51.24 J/K/kg
30.28 K, relaxation calorimetry | 51.39 J/K/kg
35.31 K, relaxation calorimetry | 66.34 J/K/kg and 66.36 J/K/kg and 66.53 J/K/kg
40.35 K, relaxation calorimetry | 80.84 J/K/kg and 80.98 J/K/kg and 81.11 J/K/kg
45.38 K, relaxation calorimetry | 95.31 J/K/kg
45.39 K, relaxation calorimetry | 94.97 J/K/kg
45.4 K, relaxation calorimetry | 95.04 J/K/kg
50.4 K, relaxation calorimetry | 109.56 J/K/kg
50.42 K, relaxation calorimetry | 108.96 J/K/kg
50.44 K, relaxation calorimetry | 108.89 J/K/kg
55.43 K, relaxation calorimetry | 122.81 J/K/kg
55.45 K, relaxation calorimetry | 122.01 J/K/kg
55.49 K, relaxation calorimetry | 122.14 J/K/kg
60.46 K, relaxation calorimetry | 135.73 J/K/kg
60.49 K, relaxation calorimetry | 134.99 J/K/kg
60.52 K, relaxation calorimetry | 134.92 J/K/kg
65.48 K, relaxation calorimetry | 148.37 J/K/kg
65.53 K, relaxation calorimetry | 147.43 J/K/kg
65.58 K, relaxation calorimetry | 147.3 J/K/kg
70.5 K, relaxation calorimetry | 160.95 J/K/kg
70.57 K, relaxation calorimetry | 159.6 J/K/kg
70.63 K, relaxation calorimetry | 159.47 J/K/kg
75.53 K, relaxation calorimetry | 172.38 J/K/kg
75.61 K, relaxation calorimetry | 170.97 J/K/kg
75.66 K, relaxation calorimetry | 170.77 J/K/kg
80.55 K, relaxation calorimetry | 184.09 J/K/kg
80.66 K, relaxation calorimetry | 182.27 J/K/kg
80.7 K, relaxation calorimetry | 182.34 J/K/kg
85.57 K, relaxation calorimetry | 194.78 J/K/kg
85.7 K, relaxation calorimetry | 192.56 J/K/kg
85.74 K, relaxation calorimetry | 192.9 J/K/kg
90.59 K, relaxation calorimetry | 204.73 J/K/kg
90.72 K, relaxation calorimetry | 202.45 J/K/kg
90.78 K, relaxation calorimetry | 202.18 J/K/kg
95.61 K, relaxation calorimetry | 213.21 J/K/kg
95.73 K, relaxation calorimetry | 211.33 J/K/kg
95.82 K, relaxation calorimetry | 210.32 J/K/kg
100.79 K, relaxation calorimetry | 218.86 J/K/kg and 218.59 J/K/kg
100.93 K, relaxation calorimetry | 219.87 J/K/kg
105.73 K, relaxation calorimetry | 227.87 J/K/kg
105.8 K, relaxation calorimetry | 226.59 J/K/kg
105.86 K, relaxation calorimetry | 225.85 J/K/kg
113.65 K, relaxation calorimetry | 238.83 J/K/kg
113.74 K, relaxation calorimetry | 237.36 J/K/kg
113.8 K, relaxation calorimetry | 236.08 J/K/kg
121.58 K, relaxation calorimetry | 248.59 J/K/kg
121.67 K, relaxation calorimetry | 246.97 J/K/kg
121.74 K, relaxation calorimetry | 245.83 J/K/kg
129.51 K, relaxation calorimetry | 257.33 J/K/kg
129.61 K, relaxation calorimetry | 255.45 J/K/kg
129.66 K, relaxation calorimetry | 254.51 J/K/kg
137.44 K, relaxation calorimetry | 264.59 J/K/kg
137.56 K, relaxation calorimetry | 262.58 J/K/kg and 263.32 J/K/kg
145.45 K, relaxation calorimetry | 269.91 J/K/kg
145.46 K, relaxation calorimetry | 268.03 J/K/kg
145.47 K, relaxation calorimetry | 269.1 J/K/kg
153.32 K, relaxation calorimetry | 274.68 J/K/kg
153.34 K, relaxation calorimetry | 275.63 J/K/kg
153.36 K, relaxation calorimetry | 275.49 J/K/kg
161.23 K, relaxation calorimetry | 282.15 J/K/kg
161.3 K, relaxation calorimetry | 279.06 J/K/kg
161.31 K, relaxation calorimetry | 280.6 J/K/kg
169.16 K, relaxation calorimetry | 286.18 J/K/kg
169.22 K, relaxation calorimetry | 285.24 J/K/kg and 284.23 J/K/kg
177.11 K, relaxation calorimetry | 290.02 J/K/kg
177.12 K, relaxation calorimetry | 289.62 J/K/kg and 289.08 J/K/kg
185.02 K, relaxation calorimetry | 293.18 J/K/kg
185.03 K, relaxation calorimetry | 293.58 J/K/kg
185.05 K, relaxation calorimetry | 293.38 J/K/kg
192.93 K, relaxation calorimetry | 296.41 J/K/kg
192.95 K, relaxation calorimetry | 296.68 J/K/kg
192.96 K, relaxation calorimetry | 296.81 J/K/kg
200.83 K, relaxation calorimetry | 299.5 J/K/kg
200.86 K, relaxation calorimetry | 299.77 J/K/kg
200.88 K, relaxation calorimetry | 299.7 J/K/kg
208.74 K, relaxation calorimetry | 302.93 J/K/kg
208.76 K, relaxation calorimetry | 303 J/K/kg
208.8 K, relaxation calorimetry | 302.6 J/K/kg
216.62 K, relaxation calorimetry | 305.29 J/K/kg
216.66 K, relaxation calorimetry | 304.88 J/K/kg
216.71 K, relaxation calorimetry | 304.61 J/K/kg
224.53 K, relaxation calorimetry | 308.38 J/K/kg
224.58 K, relaxation calorimetry | 307.71 J/K/kg
224.64 K, relaxation calorimetry | 307.17 J/K/kg
232.41 K, relaxation calorimetry | 310.8 J/K/kg
232.48 K, relaxation calorimetry | 309.86 J/K/kg
232.56 K, relaxation calorimetry | 309.05 J/K/kg
240.31 K, relaxation calorimetry | 311.88 J/K/kg
240.39 K, relaxation calorimetry | 310.67 J/K/kg
240.46 K, relaxation calorimetry | 310.2 J/K/kg
248.21 K, relaxation calorimetry | 312.89 J/K/kg
248.3 K, relaxation calorimetry | 312.15 J/K/kg
248.37 K, relaxation calorimetry | 311.47 J/K/kg
256.11 K, relaxation calorimetry | 314.1 J/K/kg
256.21 K, relaxation calorimetry | 313.22 J/K/kg
256.27 K, relaxation calorimetry | 312.68 J/K/kg
262.02 K, Extra sensitive DSC | 315.04 J/K/kg
264.01 K, relaxation calorimetry | 314.5 J/K/kg
264.11 K, relaxation calorimetry | 313.9 J/K/kg
264.17 K, relaxation calorimetry | 313.42 J/K/kg
265 K, Extra sensitive DSC | 315.24 J/K/kg
270 K, Extra sensitive DSC | 315.51 J/K/kg
271.91 K, relaxation calorimetry | 315.31 J/K/kg
272.02 K, relaxation calorimetry | 314.5 J/K/kg
272.07 K, relaxation calorimetry | 314.3 J/K/kg
275 K, Extra sensitive DSC | 316.52 J/K/kg
279.81 K, relaxation calorimetry | 318.13 J/K/kg
279.92 K, relaxation calorimetry | 317.12 J/K/kg
279.96 K, relaxation calorimetry | 317.06 J/K/kg
280 K, Extra sensitive DSC | 317.19 J/K/kg
285 K, Extra sensitive DSC | 318.2 J/K/kg
290 K, Extra sensitive DSC | 319.21 J/K/kg
295 K, Extra sensitive DSC | 319.95 J/K/kg
299.68 K, Extra sensitive DSC | 320.55 J/K/kg
307 K, Extra sensitive DSC | 321.29 J/K/kg
310 K, Extra sensitive DSC | 322.03 J/K/kg
315 K, Extra sensitive DSC | 322.3 J/K/kg
320 K, Extra sensitive DSC | 322.91 J/K/kg
325 K, Extra sensitive DSC | 323.65 J/K/kg
330 K, Extra sensitive DSC | 324.52 J/K/kg
335 K, Extra sensitive DSC | 325.93 J/K/kg
340 K, Extra sensitive DSC | 325.93 J/K/kg
345 K, Extra sensitive DSC | 326.94 J/K/kg
350 K, Extra sensitive DSC | 328.02 J/K/kg
354.61 K, Extra sensitive DSC | 329.03 J/K/kg
358.6 K, Extra sensitive DSC | 328.76 J/K/kg

Conditions | mass density [kg/m3]
[2] | 4995
